The source of these data is patent US20250263408A1 (Uniquest Pty Ltd, priority 2022, published 2025).

One experiment deals with T1, Syk (Homo sapiens, UniProt P43405).
T1 construct: purchased Promega
In words: Syk Biochemical Assay (ADP-Glo luminescence). As to conditions: ATP 40 μM final, 60 minutes, read-out: SYK Biochem IC50. How it is done:
Compounds were serially diluted in 100% DMSO, prior to an intermediate dilution in water. In a low volume white 384-well Proxiplate (Perkin Elmer), 1 μL of compound (0.4% final DMSO) was added to 3 μL of 10 ng/well Syk (Promega) and 0.2 mg/mL Poly-E4Y1 substrate (Promega) in assay buffer (final 40 mM Tris-HCl pH 7.4, 20 mM MgCl2, 0.1 mg/mL BSA) for 5 minutes. The reaction was initiated by addition of 1 μL of ATP (40 μM final) and allowed to proceed for 60 minutes at room temperature. The reaction was terminated by addition of 5 μL of ADP-Glo Reagent Mix (Promega) containing 1 mM MgCl2 for 45 minutes at room temperature. 10 μL of Kinase Detection Reagent (Promega) was added and incubated for 10 minutes at room temperature, before luminescence was measured using an Ensight Multimode Plate Reader (Perkin Elmer).
(ADP-Glo turns the ADP formed in a reaction into a luminescent signal.)

For experiment [1], the system named is Ba/F3-WT (wild type) cells. In words: Ba/F3 Proliferation Assay, Ba/F3-WT (wild type) cells with mIL-3 (Resazurin). It is filed as cell-based. As to conditions: Ba/F3-WT cells +mIL-3, 48-hour incubation. In general terms: Resazurin is reduced to fluorescent resorufin, in cell work by metabolically active cells.
For a further experiment, the target named is T2, Ba/F3-Syk cells (Homo sapiens, UniProt P43405).
T2 construct: fused on or other part: Possible but unprinted fusion partner: TEL (ETV6), the usual partner for Ba/F3 lines transformed by Syk; Nothing on a partner is printed
Briefly: Ba/F3 Proliferation Assay, Ba/F3-Syk cells (Resazurin). The format is cell-based. As to conditions: 48-hour incubation.

By IC50 is commonly meant the midpoint of a concentration-inhibition curve. Usually EC50 stands for the concentration that produces a half-maximal response. For `Cn1cc(-c2cc(OC[C@@H]3CNCC4(CC4)O3)c3cccnc3c2)cn1` [Compound 3.19, 7-(1-methyl-1H-pyrazol-4-yl)-5-{[(5S)-4-oxa-7-azaspiro[2.5]octan-5-yl]methoxy}quinoline], the IC50 at Syk was 51.1 nM. Besides, the EC50 in experiment [1] (Mus musculus, BaF3, 48 h) was determined as 6800 nM; at Ba/F3-Syk cells, 99.1 nM.

On to `CC(C)(C)n1cc(-c2cc3ncccc3c(OC[C@@H]3CNC[C@@H](C4CC4)O3)n2)cn1` [Compound 2.103, 7-(1-tert-butyl-1H-pyrazol-4-yl)-5-{[(2S,6R)-6-cyclopropylmorpholin-2-yl]methoxy}-1,6-naphthyridine], for which, on Syk, the IC50 was 30.5 nM. Also, the EC50 in experiment [1] (Mus musculus, BaF3, 48 h) came to 985 nM; on Ba/F3-Syk cells, 32.7 nM.

As for `C[C@H]1CO[C@H](COc2nc(-c3cnn(C)c3)cc3ncccc23)CN1` (relative stereo) [Compound 2.26, 7-(1-methyl-1H-pyrazol-4-yl)-5-{[(rel-2S,5S)-5-methylmorpholin-2-yl]methoxy}-1,6-naphthyridine], the IC50 on Syk amounted to 131 nM. The EC50 is 1450 nM in experiment [1] (Mus musculus, BaF3, 48 h) and 216 nM at Ba/F3-Syk cells.

Take `FC(F)(F)n1cc(-c2cc3ncccc3c(OC[C@@H]3CNCCO3)n2)cn1` [Compound 2.16, 5-{[(2S)-morpholin-2-yl]methoxy}-7-[1-(trifluoromethyl)-1H-pyrazol-4-yl]-1,6-naphthyridine]: the IC50 at Syk stood at 222 nM. For the same compound, the EC50 in experiment [1] (Mus musculus, BaF3, 48 h) was more than 10000 nM; at Ba/F3-Syk cells, 493 nM.

Turning to `CC1(C)CNC[C@@H](COc2cc(-c3ccn(CC(F)F)c3)cc3nccnc23)O1` [Compound 8.5, 7-[1-(2,2-difluoroethyl)-1H-pyrrol-3-yl]-5-{[(2S)-6,6-dimethylmorpholin-2-yl]methoxy}quinoxaline], on Syk, the IC50 amounted to 5.2 nM. For the same compound, the EC50 in experiment [1] (Mus musculus, BaF3, 48 h) amounted to 735 nM; at Ba/F3-Syk cells it was 4.5 nM.

Consider `CC(C)n1cc(-c2cc(OC[C@@H]3CNC[C@@H](C)O3)c3cccnc3c2)cn1` [Compound 3.23, 5-{[(2S,6R)-6-methylmorpholin-2-yl]methoxy}-7-[1-(propan-2-yl)-1H-pyrazol-4-yl]quinoline], for which, on Syk, the IC50 came out at 12.6 nM. Also, the EC50 in experiment [1] (Mus musculus, BaF3, 48 h) was 941 nM; at Ba/F3-Syk cells it was 12.1 nM.

Regarding `CC(C)(C)[C@H]1CNC[C@@H](COc2nc(-c3cnn(C(C)(C)C)c3)cc3ncccc23)O1` [Compound 2.100, 7-(1-tert-butyl-1H-pyrazol-4-yl)-5-{[(2S,6S)-6-tert-butylmorpholin-2-yl]methoxy}-1,6-naphthyridine], at Syk, the IC50 came to 278 nM. Moreover, the concentration for a half-maximal effect (EC50) is 3010 nM in experiment [1] (Mus musculus, BaF3, 48 h) and 362 nM on Ba/F3-Syk cells.

Regarding `FC(F)Cn1ccc(-c2cc(OC[C@@H]3CNCCO3)c3cccnc3c2)c1` [Compound 7.2, 7-[1-(2,2-difluoroethyl)-1H-pyrrol-3-yl]-5-{[(2S)-morpholin-2-yl]methoxy}quinoline], the IC50 at Syk was determined as 10.1 nM. The 50% effective concentration (EC50) was 2480 nM in experiment [1] and 2110 nM in experiment [1] (Mus musculus, BaF3, 48 h).

Turning to `c1cnc2cc(-c3cnn(C4COC4)c3)nc(OC[C@@H]3CNCCO3)c2c1` [Compound 2.11, 5-{[(2S)-morpholin-2-yl]methoxy}-7-[1-(oxetan-3-yl)-1H-pyrazol-4-yl]-1,6-naphthyridine], on Syk, the IC50 turned out to be 18.2 nM. This compound had an EC50 on Ba/F3-Syk cells of 131 nM.

With `CC1(C)CNC[C@@H](COc2cc(-c3cnn(C(F)F)c3)cc3ncccc23)O1` [Compound 3.11, 7-[1-(difluoromethyl)-1H-pyrazol-4-yl]-5-{[(2S)-6,6-dimethylmorpholin-2-yl]methoxy}quinoline], the EC50 in experiment [1] (Mus musculus, BaF3, 48 h) was 2140 nM; on Ba/F3-Syk cells it was 163 nM.

On to `CC(C)(C)n1cc(-c2cc3ncccc3c(OC[C@@H]3CNCC(F)(F)CO3)n2)cn1` [Compound 2.86, 7-(1-tert-butyl-1H-pyrazol-4-yl)-5-{[(2S)-6,6-difluoro-1,4-oxazepan-2-yl]methoxy}-1,6-naphthyridine], for which the EC50 was more than 10000 nM in experiment [1] (Mus musculus, BaF3, 48 h) and 2160 nM at Ba/F3-Syk cells.

As for `CCn1ccc(-c2cc(OC[C@@H]3CNCCO3)c3nccnc3c2)c1` [Compound 8.22, 7-(1-ethyl-1H-pyrrol-3-yl)-5-{[(2S)-morpholin-2-yl]methoxy}quinoxaline], the EC50 in experiment [1] (Mus musculus, BaF3, 48 h) turned out to be 655 nM; on Ba/F3-Syk cells, 12.6 nM.

On to `Cn1cc(-c2cc(OC[C@@H]3CNCCO3)c3cccnc3c2)cn1` [Compound 2, 7-(1-methyl-1H-pyrazol-4-yl)-5-{[(2S)-morpholin-2-yl]methoxy}quinoline], for which the EC50 in experiment [1] (Mus musculus, BaF3, 48 h) was found to be 2430 nM; on Ba/F3-Syk cells, 166 nM.

For `CC(C)(C)n1cc(-c2cc3ncccc3c(O[C@@H]3CC[C@@H]4NCCO[C@@H]43)n2)cn1` (relative stereo) [Compound 2.90, 5-[rel-(4aS,7R,7aS)-octahydrocyclopenta[b][1,4]oxazin-7-yloxy]-7-(1-tert-butyl-1H-pyrazol-4-yl)-1,6-naphthyridine], the EC50 is more than 1000 nM in experiment [1] (Mus musculus, BaF3, 48 h) and 54.6 nM at Ba/F3-Syk cells.

In the case of `C[C@@H]1CNC[C@@H](COc2cc(-c3cnn(C(C)(C)C)c3)cc3nccnc23)O1` [Compound 12.7, 7-(1-tert-butyl-1H-pyrazol-4-yl)-5-{[(2S,6R)-6-methylmorpholin-2-yl]methoxy}quinoxaline], the EC50 is 989 nM in experiment [1] (Mus musculus, BaF3, 48 h) and 9.2 nM on Ba/F3-Syk cells.

Consider `c1cnc2cc(-c3cnn(C4CCC4)c3)cc(OC[C@@H]3CNCCO3)c2c1` [Compound 3.5, 7-(1-cyclobutyl-1H-pyrazol-4-yl)-5-{[(2S)-morpholin-2-yl]methoxy}quinoline], for which the half-maximal effective concentration (EC50) in experiment [1] (Mus musculus, BaF3, 48 h) was determined as 902 nM; at Ba/F3-Syk cells, 61.8 nM.

With `FC(F)Cn1cc(-c2cc(OC[C@@H]3CNCCCO3)c3cccnc3c2)cn1` [Compound 7.15, 7-[1-(2,2-difluoroethyl)-1H-pyrazol-4-yl]-5-{[(2S)-1,4-oxazepan-2-yl]methoxy}quinoline], the EC50 worked out at 2770 nM in experiment [1] (Mus musculus, BaF3, 48 h) and 97.5 nM at Ba/F3-Syk cells.

For the compound `Cn1cccc1-c1cc2ncccc2c(OC[C@@H]2CNCCO2)n1` [Compound 2.38, 7-(1-methyl-1H-pyrrol-2-yl)-5-{[(2S)-morpholin-2-yl]methoxy}-1,6-naphthyridine], the EC50 in experiment [1] (Mus musculus, BaF3, 48 h) was more than 10000 nM; on Ba/F3-Syk cells it was 1450 nM.

Take `CC1(C)CNC[C@@H](COc2nc(-c3cnn(C4(C)CC4)c3)cc3ncccc23)O1` [Compound 2.88, 5-{[(2S)-6,6-dimethylmorpholin-2-yl]methoxy}-7-[1-(1-methylcyclopropyl)-1H-pyrazol-4-yl]-1,6-naphthyridine]: the EC50 in experiment [1] (Mus musculus, BaF3, 48 h) amounted to 1560 nM; at Ba/F3-Syk cells, 17.6 nM.

As to `CCn1ccc(-c2cc(O[C@H](C)[C@@H]3CNCC(C)(C)O3)c3nccnc3c2)c1` [Compound 8.12, 5-[(1R)-1-[(2S)-6,6-dimethylmorpholin-2-yl]ethoxy]-7-(1-ethyl-1H-pyrrol-3-yl)quinoxaline], the EC50 in experiment [1] (Mus musculus, BaF3, 48 h) came out at 537 nM; at Ba/F3-Syk cells, 7.8 nM.

In the case of `CC(C)(C)n1cc(-c2cc(OC[C@@H]3CNCCO3)c3cccnc3c2)cn1` [Compound 1, 7-(1-tert-butyl-1H-pyrazol-4-yl)-5-{[(2S)-morpholin-2-yl]methoxy}quinoline], the EC50 was found to be 4670 nM in experiment [1] (Mus musculus, BaF3, 48 h) and 44.2 nM at Ba/F3-Syk cells.

Take `COCCn1ccc(-c2cc3ncccc3c(O[C@H](C)[C@@H]3CNCCO3)n2)c1` [Compound 6.29, 7-[1-(2-methoxyethyl)-1H-pyrrol-3-yl]-5-[(1R)-1-[(2S)-morpholin-2-yl]ethoxy]-1,6-naphthyridine]: the EC50 was determined as 1440 nM in experiment [1] (Mus musculus, BaF3, 48 h) and 30.7 nM on Ba/F3-Syk cells.

`c1cnc2cc(-c3cc[nH]c3)cc(OC[C@@H]3CNCCO3)c2c1` [Compound 3.9, 5-{[(2S)-morpholin-2-yl]methoxy}-7-(1H-pyrrol-3-yl)quinoline]: the EC50 was more than 10000 nM in experiment [1] (Mus musculus, BaF3, 48 h) and 167 nM on Ba/F3-Syk cells.

Regarding `CC[C@@]1(COc2nc(-c3cnn(C(C)(C)C)c3)cc3ncccc23)CNCCO1` [Compound 10.14, 7-(1-tert-butyl-1H-pyrazol-4-yl)-5-{[(2S)-2-ethylmorpholin-2-yl]methoxy}-1,6-naphthyridine], the EC50 was 2550 nM in experiment [1] (Mus musculus, BaF3, 48 h) and 281 nM on Ba/F3-Syk cells.

Turning to `C[C@H]1CNC[C@@H](COc2nc(-c3cnn(C)c3)cc3ncccc23)O1` [Compound 2.74, 7-(1-methyl-1H-pyrazol-4-yl)-5-{[(25,6S)-6-methylmorpholin-2-yl]methoxy}-1,6-naphthyridine], the EC50 is 2880 nM in experiment [1] (Mus musculus, BaF3, 48 h) and 109 nM at Ba/F3-Syk cells.

Consider `CC(C)(C)n1ccc(-c2cc3ncccc3c(OC[C@@H]3CNCC4(CC4)O3)n2)c1` [Compound 2.61, 7-(1-tert-butyl-1H-pyrrol-3-yl)-5-{[(5S)-4-oxa-7-azaspiro[2.5]octan-5-yl]methoxy}-1,6-naphthyridine], for which the EC50 in experiment [1] (Mus musculus, BaF3, 48 h) came out at 2610 nM; at Ba/F3-Syk cells, 9.7 nM.

Turning to `Clc1cc(-c2cc3ncccc3c(OC[C@@H]3CNCCO3)n2)cs1` [Compound 2.39, 7-(5-chlorothiophen-3-yl)-5-{[(2S)-morpholin-2-yl]methoxy}-1,6-naphthyridine], the EC50 in experiment [1] (Mus musculus, BaF3, 48 h) stood at 1700 nM; on Ba/F3-Syk cells, 243 nM.

Consider `Cn1ccc(-c2cc(OC[C@@H]3CNCCCO3)c3cccnc3c2)c1` [Compound 3.22, 7-(1-methyl-1H-pyrrol-3-yl)-5-{[(2S)-1,4-oxazepan-2-yl]methoxy}quinoline], for which the EC50 came out at 9680 nM in experiment [1] (Mus musculus, BaF3, 48 h) and 99 nM at Ba/F3-Syk cells.
